Entries after “also recorded” stand apart in the source; their conditions may differ.
System: subjects with pulmonary hypertension (WHO group I PAH, WHO group III PH)
Test: Right heart catheterization: right heart/pulmonary artery hemodynamics, thermodilution cardiac output, PVR and SVR after inhaled NO and nebulized nitrite
Format: in vivo, human
Procedure: A total of 6 subjects with a confirmed diagnosis of pulmonary hypertension and meeting all inclusion/exclusion criteria were enrolled in the study which entailed a single right heart catheterization. The study population consisted of subjects with WHO group I PAH (n=3) and subjects with WHO group III PH (n=3) which received the dose escalation paradigm:
During the study right heart/pulmonary artery hemodynamics were measured as well as noninvasive systemic blood pressure monitoring and simultaneous RV echocardiography. Subjects were tested for the changes in pulmonary vascular resistance (PVR) measured by right heart catheterization and using thermodilution cardiac output measurement at time zero, at times 15, 30 and 45 minutes after completion of each nebulization dose.
Following right heart catheterization, the patient was stabilized for 20 minutes. Baseline blood collections and hemodynamic measurements were performed, followed by treatment with 40 ppm inhaled NO gas for […] with repeat hemodynamic measurements performed.
After stopping inhaled NO gas, a single dose of sildenafil was given if patients were on background sildenafil therapy at previously prescribed doses. 45-minutes after sildenafil dose baseline hemodynamics were performed.
Subjects were monitored carefully during and after the study treatment.
The study was conducted at the 3rd FL Catheterization Laboratory at Presbyterian Hospital of the University of Pittsburgh Medical Center (UPMC). Baseline vasoreactivity was recorded after Inhaled NO at 40 ppm for […]. […] Subjects were instructed to breathe as calmly, and deeply as possible until no more mist was formed in the nebulizer chamber. Subjects were also instructed to hold their breath for approximately 10 seconds after inhalation to allow the study drug to reach deep into the lungs.

[1] = Patient 5, nitrite 45 mg inhaled, 60 min
[2] = Patient 5, nitrite 90 mg inhaled, 15 min
[3] = Patient 5, nitrite 90 mg inhaled, 30 min
[4] = Patient 5, nitrite 90 mg inhaled, 45 min
[5] = Patient 5, nitrite 90 mg inhaled, 60 min

O=NO [nitrite, sodium nitrite]
PCWP [1]: 7 | PVR [1]: 6.50 | PVR/SVR [1]: 0.49 | RA [1]: 3 | RVD [1]: 1 | RVS [1]: 76 | SVR [1]: 13.16 | TPR [1]: 8.07 | mPAP [1]: 36.01 | CI [2]: 2.77 | CO [2]: 4.91 | PAD [2]: 16 | PAS [2]: 76 | PCWP [2]: 2 | PVR [2]: 6.93 | PVR/SVR [2]: 0.50 | RA [2]: 1 | SVR [2]: 13.778 | TPR [2]: 7.33 | mPAP [2]: 36.01 | CI [3]: 2.81 | CO [3]: 4.97 | PAD [3]: 16 | PAS [3]: 69 | PCWP [3]: 3 | PVR [3]: 6.17 | PVR/SVR [3]: 0.47 | RA [3]: 1 | SVR [3]: 13.21 | TPR [3]: 6.78 | mPAP [3]: 33.67 | CI [4]: 2.86 | CO [4]: 5.07 | PAD [4]: 13 | PAS [4]: 70 | PCWP [4]: 3 | PVR [4]: 5.72 | PVR/SVR [4]: 0.47 | RA [4]: 1 | SVR [4]: 12.16 | TPR [4]: 6.31 | mPAP [4]: 32.01 | CI [5]: 3.24 | CO [5]: 5.73 | PAD [5]: 14 | PAS [5]: 74 | PCWP [5]: 3 | PVR [5]: 5.41 | PVR/SVR [5]: 0.44 | RA [5]: 1 | SVR [5]: 12.33 | TPR [5]: 5.93 | mPAP [5]: 34.01 | CI (Patient 6, nitrite 45, 15 min): 2.9849 | CO (Patient 6, nitrite 45, 15 min): 5.94 | PAD (Patient 6, nitrite 45, 15 min): 22 | PAS (Patient 6, nitrite 45, 15 min): 51 | PCWP (Patient 6, nitrite 45, 15 min): 12 | PVR (Patient 6, nitrite 45, 15 min): 3.3116 | PVR/SVR (Patient 6, nitrite 45, 15 min): 0.2878 | RA (Patient 6, nitrite 45, 15 min): 7 | SVR (Patient 6, nitrite 45, 15 min): 11.505 | TPR (Patient 6, nitrite 45, 15 min): 5.3318 | mPAP (Patient 6, nitrite 45, 15 min): 31.671 | CI (Patient 6, nitrite 45, 30 min): 2.8769 | CO (Patient 6, nitrite 45, 30 min): 47.25 | PAD (Patient 6, nitrite 45, 30 min): 20 | PAS (Patient 6, nitrite 45, 30 min): 48 | PCWP (Patient 6, nitrite 45, 30 min): 10 | PVR (Patient 6, nitrite 45, 30 min): 3.3777 | PVR/SVR (Patient 6, nitrite 45, 30 min): 0.2427 | RA (Patient 6, nitrite 45, 30 min): 6 | SVR (Patient 6, nitrite 45, 30 min): 13.917 | TPR (Patient 6, nitrite 45, 30 min): 5.1244 | mPAP (Patient 6, nitrite 45, 30 min): 29.337 | CI (Patient 6, nitrite 45, 45 min): 3.0704 | CO (Patient 6, nitrite 45, 45 min): 6.11 | PAD (Patient 6, nitrite 45, 45 min): 23 | PAS (Patient 6, nitrite 45, 45 min): 52 | PCWP (Patient 6, nitrite 45, 45 min): 9 | PVR (Patient 6, nitrite 45, 45 min): 3.8741 | PVR/SVR (Patient 6, nitrite 45, 45 min): 0.2958 | RA (Patient 6, nitrite 45, 45 min): 6 | SVR (Patient 6, nitrite 45, 45 min): 13.095 | TPR (Patient 6, nitrite 45, 45 min): 5.3471 | mPAP (Patient 6, nitrite 45, 45 min): 32.671 | CI (Patient 6, nitrite 45, 60 min): 2.9196 | CO (Patient 6, nitrite 45, 60 min): 5.81 | PAD (Patient 6, nitrite 45, 60 min): 28 | PAS (Patient 6, nitrite 45, 60 min): 50 | PCWP (Patient 6, nitrite 45, 60 min): 8 | PVR (Patient 6, nitrite 45, 60 min): 4.7053 | PVR/SVR (Patient 6, nitrite 45, 60 min): 0.3417 | RA (Patient 6, nitrite 45, 60 min): 6 | SVR (Patient 6, nitrite 45, 60 min): 13.771 | TPR (Patient 6, nitrite 45, 60 min): 6.0822 | mPAP (Patient 6, nitrite 45, 60 min): 35.338 | CI (Patient 6, nitrite 90, 15 min): 3.3568 | CO (Patient 6, nitrite 90, 15 min): 6.68 | PAD (Patient 6, nitrite 90, 15 min): 24 | PAS (Patient 6, nitrite 90, 15 min): 52 | PCWP (Patient 6, nitrite 90, 15 min): 9 | PVR (Patient 6, nitrite 90, 15 min): 3.6434 | PVR/SVR (Patient 6, nitrite 90, 15 min): 0.3444 | RA (Patient 6, nitrite 90, 15 min): 6 | SVR (Patient 6, nitrite 90, 15 min): 10.58 | TPR (Patient 6, nitrite 90, 15 min): 4.9907 | mPAP (Patient 6, nitrite 90, 15 min): 33.338 | CI (Patient 6, nitrite 90, 30 min): 3.6683 | CO (Patient 6, nitrite 90, 30 min): 7.3 | PAD (Patient 6, nitrite 90, 30 min): 20 | PAS (Patient 6, nitrite 90, 30 min): 48 | PCWP (Patient 6, nitrite 90, 30 min): 6 | PVR (Patient 6, nitrite 90, 30 min): 3.1969 | PVR/SVR (Patient 6, nitrite 90, 30 min): 0.3125 | RA (Patient 6, nitrite 90, 30 min): 6 | SVR (Patient 6, nitrite 90, 30 min): 10.23 | TPR (Patient 6, nitrite 90, 30 min): 4.0188 | mPAP (Patient 6, nitrite 90, 30 min): 29.337 | CI (Patient 6, nitrite 90, 45 min): 3.7085 | CO (Patient 6, nitrite 90, 45 min): 7.38 | PAD (Patient 6, nitrite 90, 45 min): 24 | PAS (Patient 6, nitrite 90, 45 min): 52 | PCWP (Patient 6, nitrite 90, 45 min): 4 | PVR (Patient 6, nitrite 90, 45 min): 3.9753 | PVR/SVR (Patient 6, nitrite 90, 45 min): 0.4074 | RA (Patient 6, nitrite 90, 45 min): 6 | SVR (Patient 6, nitrite 90, 45 min): 9.7574 | TPR (Patient 6, nitrite 90, 45 min): 4.5173 | mPAP (Patient 6, nitrite 90, 45 min): 33.338 | CI (Patient 6, nitrite 90, 60 min): 4.3417 | CO (Patient 6, nitrite 90, 60 min): 8.64 | PAD (Patient 6, nitrite 90, 60 min): 28 | PAS (Patient 6, nitrite 90, 60 min): 55 | PCWP (Patient 6, nitrite 90, 60 min): 4 | PVR (Patient 6, nitrite 90, 60 min): 3.82 | PVR/SVR (Patient 6, nitrite 90, 60 min): 0.4877 | RA (Patient 6, nitrite 90, 60 min): 8 | RVD (Patient 6, nitrite 90, 60 min): 8 | RVS (Patient 6, nitrite 90, 60 min): 47 | SVR (Patient 6, nitrite 90, 60 min): 7.8329 | TPR (Patient 6, nitrite 90, 60 min): 4.2829 | mPAP (Patient 6, nitrite 90, 60 min): 37.005 | RA pressure (right atrial pressure) (patients with PAH (WHO Group 1 and Group 3; n=6), inhaled doses of 45 mg and 90 mg): dose-dependent reduction | PCWP (pulmonary capillary wedge pressure) (patients with PAH (WHO Group 1 and Group 3; n=6), inhaled doses of 45 mg and 90 mg, listed as inhaled nitrite): lowers; also recorded: dose-dependent reduction | response of patients non-responsive to inhaled NO (some patients of the study): responsive
